pIC50: −log10 of the molar value. Where two headings read alike, the source gives them in different places.
Target: T1, Farnesyl protein transferase (FPT) (Rattus norvegicus, UniProt Q02293+Q04631)
T1 construct: Farnesyl protein transferase (FPT) was partially purified from rat brain; from tissue; host or cells: rat brain
Experiment: In vitro enzyme assay: inhibition of farnesyl protein transferase (transfer of [3H]farnesyl from [3H]farnesyl pyrophosphate to Ras-CVLS)
Format: biochemical
Details: for FPT inhibition (percent inhibition): @ 0.06 µg/µL; for inhibition at 0.11 µM: @ 110 nM
Source text: 1. In vitro enzyme assays: Inhibition of farnesyl protein transferase and geranylgeranyl protein transferase.
Farnesyl protein transferase (FPT) was partially purified from rat brain by ammonium sulfate fractionation followed by Q-Sepharose (Pharmacia, Inc.) anion exchange chromatography essentially as described by Yokoyama et al (Yokoyama, K., et al., (1991), A protein geranylgeranyltransferase from bovine brain: Implications for protein prenylation specificity, Proc. Natl. Acad. Sci USA 88: 5302-5306, the disclosure of which is incorporated herein by reference thereto). Human famesyl protein transferase was also expressed in E. coli, using cDNA clones encoding both the a and b subunits. The methods used were similar to those published (Omer, C. et al., (1993), Characterization of recombinant human farnesyl protein transferase: Cloning, expression, famesyl diphosphate binding, and functional homology with yeast prenyl-protein transferases, Biochemistry 32:5167-5176). Human famesyl protein transferase was partially-purified from the soluble protein fraction of E. coli as described above. […] Two forms of val^12-Ha-Ras protein were prepared as substrates for these enzymes, differing in their carboxy terminal sequence. One form terminated in cysteine-valine-leucine-serine (Ras-CVLS) the other in cystein-valine-leucine-leucine (Ras-CVLL). Ras-CVLS is a substrate for the famesyl protein transferase while Ras-CVLL is a substrate for geranylgeranyl protein transferase I. The cDNAs encoding these proteins were constructed so that the proteins contain an amino-terminal extension of 6 histidine residues. Both proteins were expressed in Escherichia coli and purified using metal chelate affinity chromatography. The radiolabelled isoprenyl pyrophosphate substrates, [^3H]farnesyl pyrophosphate and [^3H]geranylgeranyl pyrophosphate, were purchased from DuPont/New England Nuclear.
Several methods for measuring famesyl protein transferase activity have been described (Reiss et al 1990, Cell 62: 81; Schaber et al 1990, J. Biol. Chem. 265: 14701; Manne et al 1990, PNAS 87: 7541; and Barbacid & Manne 1993, U.S. Patent No. 5,185,248). […] The reaction was allowed to proceed for 30 minutes at room temperature and then stopped with 0.5 ml of 4% sodium dodecyl sulfate (SDS) followed by 0.5 ml of cold 30% TCA. Samples were allowed to sit on ice for 45 minutes and precipitated Ras protein was then collected on GF/C filter paper mats using a Brandel cell harvester. Filter mats were washed once with 6% TCA, 2% SDS and radioactivity was measured in a Wallac 1204 Betaplate BS liquid scintillation counter. Percent inhibition was calculated relative to the DMSO vehicle control.

[1] = FPT INHIBITION, read-out: FPT IC50
[2] = read-out: FPT inhibition (percent inhibition)
[3] = read-out: FPT IC50, FPT INHIBITION

T1 sequence (Q02293 whole entry, one chain of several): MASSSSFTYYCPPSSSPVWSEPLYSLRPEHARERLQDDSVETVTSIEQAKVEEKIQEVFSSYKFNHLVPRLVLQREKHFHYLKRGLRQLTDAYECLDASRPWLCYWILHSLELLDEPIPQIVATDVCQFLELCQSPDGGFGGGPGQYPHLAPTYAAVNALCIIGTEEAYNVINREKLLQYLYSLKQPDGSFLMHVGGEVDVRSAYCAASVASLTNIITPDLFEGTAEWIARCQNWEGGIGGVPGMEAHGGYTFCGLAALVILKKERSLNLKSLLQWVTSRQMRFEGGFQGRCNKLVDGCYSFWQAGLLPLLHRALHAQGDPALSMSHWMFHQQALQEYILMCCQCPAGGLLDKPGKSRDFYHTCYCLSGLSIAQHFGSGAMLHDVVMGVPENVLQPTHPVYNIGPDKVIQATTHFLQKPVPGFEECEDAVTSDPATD

Compound: CN(C)CC(=O)N1CCC(C2c3ncc(Br)cc3CCc3cc(Cl)cc(Cl)c32)CC1 (single isomer, unassigned) [Example 4]
- pIC50 [1]: 6.42

Compound: CN(C)CCC(=O)N1CCC(C2c3ncc(Br)cc3CCc3cc(Cl)cc(Cl)c32)CC1 (single isomer, unassigned) [Example 5]
- pIC50 [1]: 7.25

Compound: CN(C)CCCC(=O)N1CCC(C2c3ncc(Br)cc3CCc3cc(Cl)cc(Cl)c32)CC1 (single isomer, unassigned) [Example 6]
- pIC50: 8.19

Compound: CN(C)CCCCC(=O)N1CCC(C2c3ncc(Br)cc3CCc3cc(Cl)cc(Cl)c32)CC1 (single isomer, unassigned) [Example 7]
- pIC50 [1]: 7.66

Compound: CCN(CC)CCC(=O)N1CCC(C2c3ncc(Br)cc3CCc3cc(Cl)cc(Cl)c32)CC1 (single isomer, unassigned) [Example 8]
- pIC50 [1]: 7.85

Compound: O=C(CCN1CCCCC1)N1CCC(C2c3ncc(Br)cc3CCc3cc(Cl)cc(Cl)c32)CC1 (single isomer, unassigned) [Example 9]
- pIC50 [1]: 8.22

Compound: O=C(CCN1C(=O)CCC1=O)N1CCC(C2c3ncc(Br)cc3CCc3cc(Cl)cc(Cl)c32)CC1 (single isomer, unassigned) [Example 11]
- pIC50 [1]: 7.12

Compound: NC(=O)CCC(=O)N1CCC(C2c3ncc(Br)cc3CCc3cc(Cl)cc(Cl)c32)CC1 (single isomer, unassigned) [Example 12]
- pIC50 [1]: 7.21

Compound: CC(=O)NCCCC(=O)N1CCC(C2c3ncc(Br)cc3CCc3cc(Cl)cc(Cl)c32)CC1 (single isomer, unassigned) [Example 15]
- pIC50 [1]: 7.20

Compound: O=C(NCCCC(=O)N1CCC(C2c3ncc(Br)cc3CCc3cc(Cl)cc(Cl)c32)CC1)Nc1ccccc1 (single isomer, unassigned) [Example 16]
- pIC50 [1]: < 7.00

Compound: O=C(CCCC(=O)N1CCC(C2c3ncc(Br)cc3CCc3cc(Cl)cc(Cl)c32)CC1)Nc1cccnc1 (single isomer, unassigned) [Example 17]
- pIC50 [1]: ~7.00

Compound: O=C(CCCC(=O)N1CCC(C2c3ncc(Br)cc3CCc3cc(Cl)cc(Cl)c32)CC1)Nc1ccccc1 (single isomer, unassigned) [Example 19]
- FPT inhibition (percent inhibition): 21%@ 0.06 µg/µL

Compound: O=C(CCCC(=O)N1CCC(C2c3ncc(Br)cc3CCc3cc(Cl)cc(Cl)c32)CC1)Nc1ccc(Cl)cc1 (single isomer, unassigned) [Example 20]
- inhibition at 0.092 µM (@ 92 nM, read-out: FPT inhibition (percent inhibition)): 0%

Compound: O=C(CCCC(=O)N1CCC(C2c3ncc(Br)cc3CCc3cc(Cl)cc(Cl)c32)CC1)NCc1ccccc1 (single isomer, unassigned) [Example 21]
- FPT inhibition (percent inhibition): 35%@ 0.06 µg/µL

Compound: O=C(NCCCCC(=O)N1CCC(C2c3ncc(Br)cc3CCc3cc(Cl)cc(Cl)c32)CC1)c1ccccc1 (single isomer, unassigned) [Example 22]
- FPT inhibition (percent inhibition): 41%@ 0.06 µg/µL

Compound: O=C(CCCCCN1C(=O)C=CC1=O)N1CCC(C2c3ncc(Br)cc3CCc3cc(Cl)cc(Cl)c32)CC1 (single isomer, unassigned) [Example 23]
- pIC50 [1]: 6.21

Compound: O=C(NCCCC(=O)N1CCC(C2c3ncc(Br)cc3CCc3cc(Cl)cc(Cl)c32)CC1)c1ccncc1 (single isomer, unassigned) [Example 24]
- FPT inhibition (percent inhibition): 20 %@ 0.06 µg/µL

Compound: CC(C)(C)OC(=O)NCCCC(=O)N1CCC(C2c3ncc(Br)cc3CCc3cc(Cl)cc(Cl)c32)CC1 (single isomer, unassigned) [Example 25]
- inhibition at 0.33 µM (@ 330nM, read-out: FPT inhibition (percent inhibition)): 47%

Compound: CC(C)(C)OC(=O)NCC(=O)N1CCC(C2c3ncc(Br)cc3CCc3cc(Cl)cc(Cl)c32)CC1 (single isomer, unassigned) [Example 26]
- pIC50 [1]: 6.27

Compound: O=C(CCCN1C(=O)c2ccncc2C1=O)N1CCC(C2c3ncc(Br)cc3CCc3cc(Cl)cc(Cl)c32)CC1 (single isomer, unassigned) [Example 33, 4-(8,10-DICHLORO-3-BROMO-6,11-DIHYDRO-5H-BENZO[5,6]CYCLO-HEPTA[1,2-b]PYRIDIN-11-YL)-1-[4-(1,3-DIHYDRO-1,3-DIOXO-2H-PYRROLO-[3,4c]-PYRIDINE-2-YL)-1-OXOBUTYL]PIPERIDINE]
- inhibition at 0.0934 µM [2]: 38.7%

Compound: NC(=O)N1CCC(C2c3ncc(Br)cc3CCc3cc(Cl)cc(Cl)c32)CC1 (single isomer, unassigned; (+)) [Example 1, (+)-4-(3-BROMO-8,10-DICHLORO-6,11-DIHYDRO-5H-BENZO[5,6]CYCLOHEPTA[1,2-b]PYRIDIN-11-YL)-1-PIPERIDINE CARBOXAMIDE, reference compound]
- pIC50 [1]: 6.41

Compound: NCC(=O)N1CCC(C2c3ncc(Br)cc3CCc3cc(Cl)cc(Cl)c32)CC1 (single isomer, unassigned; (+)) [Example 3, (+)-1-(AMINOACETYL)-4-(3-BROMO-8,10-DICHLORO-6,11-DIHYDRO-5H-BENZO[5,6]CYCLO-HEPTA[1,2-b]PYRIDIN-11-YL) PIPERIDINE]
- pIC50 [1]: 5.96

Compound: NCCCC(=O)N1CCC(C2c3ncc(Br)cc3CCc3cc(Cl)cc(Cl)c32)CC1 (single isomer, unassigned; (+)) [Example 27, (+)-1-(4-AMINO-1-OXOBUTYL)-4-(3-BROMO-8,10-DICHLORO-6,11-DIHYDRO-5H-BENZO[5,6]CYCLO-HEPTA[1,2-b]PYRIDIN-11-YL) PIPERIDINE]
- pIC50 [1]: 6.89

Compound: CS(=O)(=O)NCC(=O)N1CCC(C2c3ncc(Br)cc3CCc3cc(Cl)cc(Cl)c32)CC1 (single isomer, unassigned; (+)) [Example 28]
- inhibition at 0.11 µM [2]: 43%

Compound: NC(=O)NCC(=O)N1CCC(C2c3ncc(Br)cc3CCc3cc(Cl)cc(Cl)c32)CC1 (single isomer, unassigned; (+)) [Example 30]
- inhibition at 0.11 µM [2]: 36%

Compound: NC(=O)NCCCC(=O)N1CCC(C2c3ncc(Br)cc3CCc3cc(Cl)cc(Cl)c32)CC1 (single isomer, unassigned; (+)) [Example 31]
- pIC50 [1]: 7.24

Compound: O=C(CCCN1C(=O)c2ccccc2C1=O)N1CCC(C2c3ncc(Br)cc3CCc3cc(Cl)cc(Br)c32)CC1 (single isomer, unassigned; (+)) [Example 32, (+)-4-(3,10-DIBROMO-8-CHLORO-6,11-DIHYDRO-5H-BENZO[5,6]CYCLO-HEPTA[1,2-b]PYRIDIN-11-YL)-1-[4-(1,3-DIHYDRO-1,3-DIOXO-2H-ISOINDOL-2-YL)-1-OXOBUTYL)PIPERIDINE]
- inhibition at 0.088 µM (@ 88 nM, read-out: FPT inhibition (percent inhibition)): 12%

Compound: CCOC(=O)CC(=O)N1CCC([C@H]2c3ncc(Br)cc3CCc3cc(Cl)cc(Br)c32)CC1 [Example 45, (+)-ETHYL 4-(3,10-DIBROMO-8-CHLORO-6,11-DIHYDRO-5H-BENZO[5,6]CYCLO-HEPTA[1,2-b]PYRIDIN-11(R)-YL)-BETA-OXO-1-PIPERIDININE PROPANOATE]
- pIC50 [1]: 7.55

Compound: O=C(O)CC(=O)N1CCC([C@H]2c3ncc(Br)cc3CCc3cc(Cl)cc(Br)c32)CC1 [Example 46, (+)-SODIUM 4-(3,10-DIBROMO-8-CHLORO-6,11-DIHYDRO-5H-BENZO[5,6]CYCLO-HEPTA[1,2-b]PYRIDIN-11(R)-YL)-BETA-OXO-1-PI[…]]
- pIC50 [3]: 7.11

Compound: NC(=O)CC(=O)N1CCC([C@H]2c3ncc(Br)cc3CCc3cc(Cl)cc(Br)c32)CC1 [Example 47, 4-(3,10-DIBROMO-8-CHLORO-6,11-DIHYDRO-5H-BENZO[5,6]CYCLO-HEPTA[1,2-b]PYRIDIN-1(R)-YL)-BETA-OXO-1-PIPERIDININE PROPANAMIDE]
- pIC50 [1]: 7.17

Compound: COC(=O)CCC(=O)N1CCC([C@H]2c3ncc(Br)cc3CCc3cc(Cl)cc(Br)c32)CC1 [Example 48, (+)-METHYL 4-(3,10-DIBROMO-8-CHLORO-6,11-DIHYDRO-5H-BENZO[5,6]CYCLO-HEPTA[1,2-b]PYRIDIN-11(R)-YL)-GAMMA-OXO-1-PI[…]]
- pIC50 [3]: 8.05
